In patent publication US20260078103A1, “ISOQUINOLONES AS PI3K INHIBITORS” (OnKure, Inc., priority 2022, published 2026):
Like-named read-outs stand apart in the source and are kept apart here.

How the values were obtained:
Assay type in all cases: cell-based
[1] = tested on: T47D cells expressing mutant PI3Ka (H1047R); test: In vitro cell proliferation, T47D cells (CellTiter-Glo); settings: inhibition of proliferation, read-out: Avg T-47D EC50
Outline: (§1)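 EC50 values derive from a four-parameter logistic fit of luminescence-based (CellTiter-Glo) inhibition, referenced to 0.1% DMSO and 10 uM Alpelisib controls. Compound exposure lasted 72 h at 37 °C.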

[2] = tested on: SKBR3 cells express WT PI3Ka; test: In vitro cell proliferation, SKBR3 cells (CellTiter-Glo); settings: inhibition of proliferation
Outline: as §1

[3] = tested on: phosphorylation of AKT (pAKT) in T47D cells expressing mutant PI3Ka (H1047R); test: In vitro cell pAKT (Ser473) HTRF, T47D cells; settings: cellular pAKT, T47D cells, mutant PI3Ka (H1047R), 6 hours, read-out: Avg T-47D IC50
Outline: (§2)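 T47D cells (RPMI, 10% FBS, 0.2 units/mL insulin) or SKBR3 cells (McCoy's 5a, 10% FBS) were seeded onto 10-point compound dilutions and incubated 6 h at 37 °C. After lysis, pAKT was detected overnight by HTRF (Eu cryptate/d2). IC50 was fitted from % inhibition relative to 0.1% DMSO and 10 uM alpelisib controls.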

[4] = tested on: phosphorylation of AKT (pAKT) in SKBR3 cells express WT PI3Ka; test: In vitro cell pAKT (Ser473) HTRF, SKBR3 cells; settings: cellular pAKT
Outline: as §2

| SMILES | EC50 ([1]; 72 hours) | EC50 ([2]; 72 hours) | IC50 [3] | IC50 ([4]; 6 hours) | EC50 ([2]; Homo sapiens, SK-BR-3, 72 h) | IC50 ([4]; Homo sapiens, SK-BR-3, 6 h) | IC50 ([3]; Homo sapiens, T47D, 6 h) | EC50 ([1]; Homo sapiens, T47D, 72 h) |
| --- | --- | --- | --- | --- | --- | --- | --- | --- |
| Cc1cc([C@@H](C)Nc2ccccc2C(=O)O)c2cc(C3CC3(F)F)n(C)c(=O)c2c1 (single isomer, unassigned) [Example 385] | 0.001 to 0.5 µM | > 15 µM | 0.001 to 0.5 µM | > 15 µM |  |  |  |  |
| Cc1cc([C@@H](C)Nc2cccc(F)c2C(=O)O)c2cc(C3CC3(F)F)n(C)c(=O)c2c1 (single isomer, unassigned) [Example 420] | 2 to 15 µM |  | 2 to 15 µM |  | > 15 µM | > 15 µM |  |  |
| Cc1cc([C@@H](C)Nc2cccc(F)c2C(=O)O)c2cc(C3CC3(F)F)n(C)c(=O)c2c1 (single isomer, unassigned) [Example 421] | 0.5 to 2 µM | > 15 µM | 0.001 to 0.5 µM | > 15 µM |  |  |  |  |
| C[C@@H](Nc1cccc(F)c1C(=O)O)c1cc(F)cc2c(=O)n(C)c(C3C[C@@H]3C3CC3)cc12 (single isomer, unassigned) [Example 425] | 0.5 to 2 µM |  |  |  | > 15 µM | > 15 µM | 0.001 to 0.5 µM |  |
| C[C@@H](Nc1cccc(F)c1C(=O)O)c1cc(F)cc2c(=O)n(C)c(C3C[C@@H]3C3CC3)cc12 (single isomer, unassigned) [Example 426] | 0.001 to 0.5 µM | > 15 µM | 0.001 to 0.5 µM | > 15 µM |  |  |  |  |
| C[C@@H](Nc1cccc(F)c1C(=O)O)c1cc(F)cc2c(=O)n(C)c(C3C[C@@H]3C(F)(F)F)cc12 (single isomer, unassigned) [Example 427] |  |  |  |  | > 15 µM | > 15 µM | 0.001 to 0.5 µM | 0.5 to 2 µM |
| C[C@@H](Nc1cccc(F)c1C(=O)O)c1cc(F)cc2c(=O)n(C)c(C3C[C@@H]3C(F)(F)F)cc12 (single isomer, unassigned) [Example 428] | 0.5 to 2 µM | > 15 µM | 0.001 to 0.5 µM | > 15 µM |  |  |  |  |
| C[C@@H](Nc1ccccc1C(=O)O)c1cc(F)cc2c(=O)n(C)c(C3C[C@@H]3C3CC3)cc12 (single isomer, unassigned) [Example 449] |  |  |  |  | > 15 µM | > 15 µM | 0.001 to 0.5 µM | 0.001 to 0.5 µM |
| C[C@@H](Nc1ccccc1C(=O)O)c1cc(F)cc2c(=O)n(C)c(C3C[C@@H]3C3CC3)cc12 (single isomer, unassigned) [Example 450] | 0.001 to 0.5 µM | > 15 µM | 0.001 to 0.5 µM | > 15 µM |  |  |  |  |
| C[C@@H](Nc1ccccc1C(=O)O)c1cc(F)cc2c(=O)n(C)c(C3C[C@@H]3C(F)(F)F)cc12 (single isomer, unassigned) [Example 451] |  |  |  |  | > 15 µM | > 15 µM | 0.001 to 0.5 µM | 0.001 to 0.5 µM |
| C[C@@H](Nc1ccccc1C(=O)O)c1cc(F)cc2c(=O)n(C)c(C3C[C@@H]3C(F)(F)F)cc12 (single isomer, unassigned) [Example 452] | 0.001 to 0.5 µM | > 15 µM | 0.001 to 0.5 µM | > 15 µM |  |  |  |  |
| C[C@@H](Nc1cccc(F)c1C(=O)O)c1cc(F)cc2c(=O)n(C)c(C3C[C@@H]3C(F)F)cc12 (single isomer, unassigned) [Example 475] |  |  |  |  | > 15 µM | > 15 µM | 0.001 to 0.5 µM | 0.5 to 2 µM |
| C[C@@H](Nc1cccc(F)c1C(=O)O)c1cc(F)cc2c(=O)n(C)c(C3C[C@@H]3C(F)F)cc12 (single isomer, unassigned) [Example 476] | 0.5 to 2 µM | > 15 µM | 0.001 to 0.5 µM | > 15 µM |  |  |  |  |
| C[C@@H](Nc1cccc(F)c1C(=O)O)c1cc(F)cc2c(=O)n(C)c(C3CC3(F)F)cc12 (single isomer, unassigned) [Example 479] | 2 to 15 µM |  | 2 to 15 µM |  | > 15 µM | > 15 µM |  |  |
| C[C@@H](Nc1cccc(F)c1C(=O)O)c1cc(F)cc2c(=O)n(C)c(C3CC3(F)F)cc12 (single isomer, unassigned) [Example 480] | 0.5 to 2 µM | > 15 µM | 0.001 to 0.5 µM | > 15 µM |  |  |  |  |
| C[C@@H](Nc1ccccc1C(=O)O)c1cc(F)cc2c(=O)n(C)c(C3CC3(F)F)cc12 (single isomer, unassigned) [Example 481] | 0.5 to 2 µM |  | 0.5 to 2 µM |  | > 15 µM | > 15 µM |  |  |

| SMILES | EC50 ([1]; 72 hours) | EC50 ([2]; 72 hours) | IC50 [3] | IC50 ([4]; 6 hours) | EC50 ([2]; Homo sapiens, SK-BR-3, 72 h) | IC50 ([4]; Homo sapiens, SK-BR-3, 6 h) | IC50 ([3]; Homo sapiens, T47D, 6 h) | EC50 ([1]; Homo sapiens, T47D, 72 h) |
| --- | --- | --- | --- | --- | --- | --- | --- | --- |
| C[C@@H](Nc1ccccc1C(=O)O)c1cc(F)cc2c(=O)n(C)c(C3CC3(F)F)cc12 (single isomer, unassigned) [Example 482] | 0.001 to 0.5 µM | > 15 µM | 0.001 to 0.5 µM | > 15 µM |  |  |  |  |
| Cc1cc(C(C)Nc2ccccc2C(=O)O)c2cc(-c3ccc(N4CCOCC4)nc3)n(C)c(=O)c2c1 (single isomer, unassigned) [Example 486] | 2 to 15 µM | > 15 µM | 2 to 15 µM | > 15 µM |  |  |  |  |
| Cc1cc(C(C)Nc2ccccc2C(=O)O)c2cc(-c3ccc(N4CCOCC4)nc3)n(C)c(=O)c2c1 (single isomer, unassigned) [Example 487] | 0.001 to 0.5 µM | 2 to 15 µM | 0.001 to 0.5 µM | 2 to 15 µM |  |  |  |  |
| C[C@@H](Nc1ccccc1C(=O)O)c1cc(F)cc2c(=O)n(C)c(C3C[C@@H]3C(F)F)cc12 (single isomer, unassigned) [Example 488] |  |  |  |  | > 15 µM | > 15 µM | 0.001 to 0.5 µM | 0.001 to 0.5 µM |
| C[C@@H](Nc1ccccc1C(=O)O)c1cc(F)cc2c(=O)n(C)c(C3C[C@@H]3C(F)F)cc12 (single isomer, unassigned) [Example 489] | 0.001 to 0.5 µM | > 15 µM | 0.001 to 0.5 µM | > 15 µM |  |  |  |  |
| C[C@@H](Nc1ccccc1C(=O)O)c1cc(F)cc2c(=O)n(C)c(C3C[C@@H]3CF)cc12 (single isomer, unassigned) [Example 493] |  |  |  |  | > 15 µM | > 15 µM | 0.001 to 0.5 µM | 0.001 to 0.5 µM |
| C[C@@H](Nc1ccccc1C(=O)O)c1cc(F)cc2c(=O)n(C)c(C3C[C@@H]3CF)cc12 (single isomer, unassigned) [Example 494] | 0.001 to 0.5 µM | > 15 µM | 0.001 to 0.5 µM | > 15 µM |  |  |  |  |
| CC(Nc1ccccc1C(=O)O)c1cc(F)cc2c(=O)n(C)c(N3C4CCC3CN(CC(F)(F)F)C4)c(F)c12 (single isomer, unassigned) [Example 566] | 2 to 15 µM |  | > 15 µM | > 15 µM | 2 to 15 µM |  |  |  |
| CC(Nc1ccccc1C(=O)O)c1cc(F)cc2c(=O)n(C)c(N3C4CCC3CN(CC(F)(F)F)C4)c(F)c12 (single isomer, unassigned) [Example 567] | 0.001 to 0.5 µM | 2 to 15 µM | 0.001 to 0.5 µM | 2 to 15 µM |  |  |  |  |
| CC(Nc1ccccc1C(=O)O)c1cc(F)cc2c(=O)n(C)c(N3CCN(CC(F)(F)F)CC3)c(F)c12 (single isomer, unassigned) [Example 572] | 0.001 to 0.5 µM |  | 0.001 to 0.5 µM | 2 to 15 µM | > 15 µM |  |  |  |
| CC(Nc1ccccc1C(=O)O)c1cc(F)cc2c(=O)n(C)c(N3CCN(CC(F)(F)F)CC3)c(F)c12 (single isomer, unassigned) [Example 573] | 2 to 15 µM | > 15 µM | 2 to 15 µM | > 15 µM |  |  |  |  |
| C[C@@H](Nc1ccccc1C(=O)O)c1cc(F)cc2c(=O)n(C)c(C3C[C@@H]3CF)c(F)c12 (single isomer, unassigned) [Example 577] |  |  |  |  | > 15 µM | > 15 µM | 0.001 to 0.5 µM | 0.001 to 0.5 µM |
| Cc1ccc(N[C@H](C)c2cc(F)cc3c(=O)n(C)c(C4CC4C4CC4)cc23)c(C(=O)O)n1 (stereo in doubt) [Example 45, 3-(((R)-1-(3-(trans-[1,1′-bi(cyclopropan)]-2-yl)-7-fluoro-2-methyl-1-oxo-1,2-dihydroisoquinolin-5-yl)ethyl)amino)-6-methylpicolinic acid] | 2 to 15 µM | > 15 µM | 0.5 to 2 µM | > 15 µM |  |  |  |  |
| Cc1cc(C(C)Nc2ccccc2C(=O)O)c2cc(-c3cc4cc(F)ccc4[nH]3)n(C)c(=O)c2c1 (centres unmarked) [Example 7, 2-((1-(3-(5-fluoro-1H-indol-2-yl)-2,7-dimethyl-1-oxo-1,2-dihydroisoquinolin-5-yl)ethyl)amino)benzoic acid] |  |  |  |  | > 15 µM | > 15 µM | 0.5 to 2 µM | 2 to 15 µM |
| Cc1cc(C(C)Nc2ccccc2C(=O)O)c2cc(N3C[C@@H]4[C@@H](C#N)[C@@H]4C3)n(C)c(=O)c2c1 (stereo partly drawn) [Example 14, 2-((1-(3-((1R,5S,6r)-6-cyano-3-azabicyclo[3.1.0]hexan-3-yl)-2,7-dimethyl-1-oxo-1,2-dihydroisoquinolin-5-yl)ethyl)amino)benzoic acid] | 0.001 to 0.5 µM |  | 0.001 to 0.5 µM |  | > 15 µM | > 15 µM |  |  |
| Cc1cc(C(C)Nc2ccccc2C(=O)O)c2cc(N3C[C@@H]4[C@@H](C#N)[C@@H]4C3)n(C)c(=O)c2c1 (stereo partly drawn) [Example 15, 2-((1-(3-((1R,5S,6r)-6-cyano-3-azabicyclo[3.1.0]hexan-3-yl)-2,7-dimethyl-1-oxo-1,2-dihydroisoquinolin-5-yl)ethyl)amino)benzoic acid] | 0.5 to 2 µM | > 15 µM | 2 to 15 µM | > 15 µM |  |  |  |  |
